Results published in ChEMBL document CHEMBL3988442, “University of Dundee, Small-Polar-MMV Screening Library” (2021).
Values joined by “and” are separate entries in the source; they are usually repeats but may differ in a detail not shown here. Equal entries are not always repeated.

Test system: Plasmodium falciparum
Assay: Calibr Malaria Delayed Death Assay SOP
Type: functional, organism-based
Conditions: for IC50: Plasmodium falciparum

SMILES	pIC50	IC50
NC(=O)CN1CCC(Nc2ccnc3ccc(Cl)cc23)CC1	6.054	761 nM
Cc1ccc(S(=O)(=O)N2CCC(N3CCCCC3)CC2)cc1C	5.751	2130 nM
COc1cccc(CNCc2cccc(Cl)c2)c1O	6.064	914 nM
COc1ccc(CCC(=O)NCCN2CCC(c3cccs3)CC2)cc1	6.185	781 nM
CCC(C)(C)n1nnnc1C(c1cccs1)N1CCc2ccccc2C1 (configuration not stated)	6.38	550 nM
Cc1ccc2c(c1)CN(C(=O)C1CCCCC1)C(CN(C)C)CO2.Cl (configuration not stated)	6.082	880 nM
Fc1ccc(Sc2ccccc2CNC2=NCCN2)cc1.I	5.875	1210 nM
CN1CCN(Cc2ccccc2Oc2nccc3occc23)CC1	6.2	593 nM
CCNc1ccnc(CN2CCCC2C(=O)Nc2nccs2)c1 (configuration not stated)	6.462	367 nM
CCN(CC)CCN(C)c1nc(-c2ccc(Cl)cc2)nc2c1CNC2	6.071	1020 nM
CSc1ccc(-c2nc(CN3CCC(CN)C3)c(C)o2)cc1 (configuration not stated)	5.962 and 5.805 and 6.058	1020 nM
CCOc1ccc(Br)cc1C1CCCCN1.Cl (configuration not stated)	6.053	737 nM
COc1ccc(C(=O)NCCCOC(C)c2ccccc2)c(OC)c1 (configuration not stated)	6.022	763 nM
Cc1cccc(OC(C)C(=O)NCC2(N(C)C)CCCC2)c1 (configuration not stated)	6.11	760 nM
CC(NCC1CCN(CCO)CC1)c1cccc(Cl)c1 (configuration not stated)	6.336	442 nM
NC(=O)c1cccc2nc([C@H]3CCN(Cc4ccccn4)C3)[nH]c12	7.592	27.5 nM
CN(Cc1ccccc1-n1cccn1)C[C@@H]1CCCN2CCCC[C@H]12	6.129	852 nM
Cc1cccnc1CN1CC[C@H](Oc2cccc(F)c2)[C@@](C)(O)C1	6.112	710 nM
Cc1ccc(OC2(C(=O)N(C)Cc3ccoc3)CCNCC2)cc1	6.094	701 nM
CCC(CC)(CN)NC(C)c1ccccc1 (configuration not stated)	6.003	924 nM
CCC[C@H]1CN(c2nc(CO)cs2)C[C@@H]1NC(=O)C1(COC)CC1	5.825	1600 nM
Fc1ccc2c(C3=CCN(Cc4nnc(C5CCC5)o4)CC3)c[nH]c2c1	5.905	1700 nM
CCN(CC1CN(Cc2nc(C3CC3)no2)CCO1)c1cccnn1 (configuration not stated)	5.75	1860 nM

SMILES	pIC50	IC50
CC(NCCc1nccn1Cc1ccccc1)c1ccsc1 (configuration not stated)	6.094	1000 nM
CCN1CC(c2ccccc2)CC2(CCN(Cc3ncc[nH]3)CC2)C1 (configuration not stated)	6.147	799 nM
Cc1cccc2[nH]c(-c3cn(C4CCNCC4)nn3)nc12	6.226	597 nM
O=C(Nc1nccs1)C1CCCN1Cc1ccccn1 (configuration not stated)	6.607	229 nM
NC1CCCCN(Cc2ccccc2CS(=O)(=O)c2ccccc2)C1 (configuration not stated)	6.25	568 nM
Cc1ccc(CNC(C)c2cc(F)ccc2N2CCN(C)CC2)o1 (configuration not stated)	6.454	329 nM
CC(NCC1CCN(CCO)CC1)c1ccc(F)c(Cl)c1 (configuration not stated)	6.184	758 nM
Cc1c(C)n(CC(O)CN2CCN(CCO)CC2)c2c(Cl)cccc12.Cl (configuration not stated)	6.075	950 nM
Brc1cccc(C2(CNCc3cc[nH]c3)CCOCC2)c1	6.135	829 nM
CN(CCO)Cc1cc(Cl)ccc1OCC(O)CN1CCCCCC1 (configuration not stated)	6.095	765 nM
Cc1cc(CN(C)c2nc(-c3ccccn3)nc3c2CCNCC3)n[nH]1	5.981	1080 nM
Cc1ccccc1CNCC(O)c1ccc(OC(C)C)cc1 (configuration not stated)	6.206	637 nM
COc1cccc(CNCc2ccccc2Cl)c1O	6.206	677 nM
COc1ccc(CN2CC[C@@H](O)[C@@H]2Cc2ccccc2)cc1.O=C(O)C(F)(F)F	5.901	1540 nM
O=C(c1scc2c1OCCO2)N1CCOC(CCc2ccccc2)C1 (configuration not stated)	6.32	386 nM
CC1(C)CC(N(Cc2cccnc2)Cc2cccc(F)c2)CC(C)(C)N1.O=C(O)CC(O)(CC(=O)O)C(=O)O	6.708	291 nM
CN1CCC2(CCCN(c3nccc(C(F)(F)F)n3)C2)CC1.O=C(O)C(F)(F)F	6.246	771 nM
c1ccc(Oc2nccc3occc23)c(CN2CCCCC2)c1	6.272	735 nM
Cl.OC(CNCc1ccccc1C(F)(F)F)c1ccccc1 (configuration not stated)	6.179	709 nM
CC(C)CN1CCCC1c1ccc(C(=O)Nc2cccnc2)s1 (configuration not stated)	6.101	537 nM
Cc1cccc(C)c1Nc1noc2c1CN(C(=O)c1ccn(C)n1)CC2	6.694	206 nM
Cc1cnn(CCNCc2nccn2Cc2ccccc2)c1	6.212	395 nM
CC(C)N(C)Cc1cnc2n1CCN(C(=O)NC1CCCC1)C2.O=C(O)C(F)(F)F	6.607	275 nM

SMILES	pIC50	IC50
O=C(NCCN1CCCC1)C1(c2ccc(Cl)cc2)CCOCC1	6.003	714 nM
CN(C[C@H]1CN2CC[C@H]1C[C@@H]2CNC(=O)c1ccco1)c1ccccc1	5.968	1130 nM
CN(CCCO)Cc1cc(Cl)ccc1OCC(O)CN1CCCCCC1 (configuration not stated)	6.2	738 nM
CCc1ncc2c(n1)CN(CC(=O)Nc1ccc(Cl)cn1)CC2	5.772	1240 nM
CC(=O)N(c1ccc(F)cc1)c1nc(CN2CCCC2C(C)C)cs1 (configuration not stated)	6.177	479 nM
CN(Cc1ccco1)C[C@H]1OC[C@@H]2CCN(Cc3ccccn3)C[C@@H]21.O=C(O)C(F)(F)F.O=C(O)C(F)(F)F.O=C(O)C(F)(F)F	5.905	1720 nM
Cc1ccsc1CN(CCCN(C)C)Cc1ccccn1	6.353	409 nM
O=C(NCC1CCN(CCc2ccccc2)C1)c1cc(Cl)c[nH]1 (configuration not stated)	5.911	1260 nM
Cc1cn2c(n1)C(CNCc1ccc(C)s1)CCC2 (configuration not stated)	6.227	722 nM
CN(C(=O)c1ccon1)[C@@H]1CCC[C@@H](Oc2ccccc2)[C@@H]1O	5.983	1190 nM
Oc1ccc(Cl)cc1CNCc1ccccc1Cl	6.1	616 nM
CCCOc1ccc2ccccc2c1CN1CC[C@@]2(O)CCNC[C@H]2C1	6.043	924 nM
COCCCN1CCCN(C(C)C(=O)Nc2cccc(I)c2)CC1 (configuration not stated)	6.54	483 nM
c1ccc(CCCN2CCN(c3ccc4nncn4n3)CC2)cc1	5.983	1410 nM
Clc1cccc(C(NCc2ncc[nH]2)c2ccccn2)c1 (configuration not stated)	6.581	225 nM
Cc1ccc(C2(CN3CCN(Cc4cnc(C)n4C)CC3)CC2)cc1.Cl	6.615	255 nM
Clc1cccc2c3c([nH]c12)CCN(Cc1cc2n(n1)CCCNC2)C3	6.194	965 nM
Cc1cccnc1CC(C)NC1Cc2ccccc2C1 (configuration not stated)	5.954	1290 nM
c1cc(N2CCC(CN3CCOCC3)CC2)c2sccc2n1	6.066	867 nM
Cc1cc(S(=O)(=O)N2CCC(N3CCC(O)C3)CC2)c(Cl)cc1Cl (configuration not stated)	5.897	958 nM
CCOc1ccc(Cl)cc1C1CCCCN1.Cl (configuration not stated)	6.229	612 nM
C[C@@H]1CN(C(=O)C2CCS(=O)(=O)CC2)CC[C@@]1(O)C1CCOCC1	6.055	998 nM
CC(C)[C@H](CO)Nc1nccc(-c2c[nH]nc2-c2ccncc2)n1	5.945	1130 nM

SMILES	pIC50	IC50
COc1cc(CNCC(O)c2ccc(F)c(F)c2)cc2c1OCO2 (configuration not stated)	6.45	460 nM
O=C(NC1CCN(CC2CCCC2)C1)N1CCC(OCC2CC2)CC1 (configuration not stated)	5.978	966 nM
Cc1cc(CN2CCc3nc(-c4ccncc4)nc(O)c3CC2)c(C)s1	5.926 and 6.258	–
CN1CCCC(c2cccc(Cc3ccccc3Cl)n2)C1 (configuration not stated)	6.022	1020 nM
O=C([C@@H]1Cc2[nH]cnc2CN1Cc1cc2ccccc2o1)N1CCCC1	5.967	1090 nM
Cc1cccc(C)c1Nc1noc2c1CN(C(=O)c1cn(C)cn1)CC2	6.709	190 nM
Cn1ccnc1CNC1CCCOc2c1ccc1ccccc21 (configuration not stated)	5.947	1200 nM
Cn1cc(CN2CCCC(CCc3ccc(F)cc3F)C2)cn1 (configuration not stated)	5.983	992 nM
CCC(CN1CCCCC1)NC(=O)C1(c2ccc(F)cc2)CC1.O=C(O)CC(O)(CC(=O)O)C(=O)O (configuration not stated)	6.19	709 nM
O=C(NCCc1ccccc1)NCCN1CCC(c2cccs2)CC1	6.05	855 nM
COc1ccc(CN2CCNC(=O)CC2)cc1SC(F)(F)F	6.078	754 nM
Cc1cc(C)cc(CN2C[C@H]3COC[C@H](N4CCN(C)CC4)[C@H]3C2)c1.O=C(O)C(F)(F)F.O=C(O)C(F)(F)F.O=C(O)C(F)(F)F	6.958	197 nM
COc1ccc(-c2c(C)nn3c(=N)c(C#N)n[nH]c23)cc1OC	6.297	538 nM
CNS(=O)(=O)c1cccc(C(C)NCc2ccccc2OC)c1 (configuration not stated)	6.041	1090 nM
c1cc(-c2n[nH]cc2-c2ccnc(N3CCCCCC3)n2)ccn1	8.34	4.12 nM
O=C(O)C(F)(F)F.c1ccc(NC[C@@H]2CCC[C@@H]3CN(Cc4cccnc4)C[C@@H]32)nc1	5.946	1220 nM
Cc1n[nH]cc1CNC1(c2ccc(F)cc2)CCCC1	6.295	584 nM
CC(N)Cc1ccccc1Sc1ccccc1.O=C(O)/C=C\C(=O)O (configuration not stated)	6.082	854 nM
CC(C)N1CCC(NCc2cccnc2N(C)Cc2ccccc2)CC1	6.416	447 nM
Cl.Fc1cccc(F)c1Cn1c(C2CCNCC2)cc2cccnc21	6.523	307 nM
